This passage reports IC50 results from US10023534B2 (BRISTOL-MYERS SQUIBB COMPANY, priority 2014, dated 2018).

Assay [1] relates to Ramos RA1 B cells. Put plainly: Ramos FLIPR Assay (intracellular calcium flux, anti-human IgM stimulated). Type of assay: cell-based. As to the method: Ramos FLIPR Assay […] Dye-loaded cells were pelleted (Beckmann GS-CKR, 1200 rpm, room temperature, 5 min) and resuspended at room temperature in RPMI minus phenol red with 50 mM HEPES and 10% FBS to a density of 1×10^6 cells/mL. 150 μL aliquots (150,000 cells/well) were plated into 96 well poly-D-lysine coated assay plates (BD 35 4640) and briefly centrifuged (Beckmann GS-CKR 800 rpm, 5 min, without brake). Next, 50 μL compound dilutions in 0.4% DMSO/RPMI minus phenol red+50 mM HEPES+10% FBS were added to the wells and the plate was incubated at room temperature in the dark for 1 hour. The assay plate was briefly centrifuged as above prior to measuring calcium levels. Using the […] (Molecular Devices), cells were stimulated by adding goat anti-human IgM (Invitrogen AHI0601) to 2.5 μg/mL. Changes in intracellular calcium concentrations were measured for 180 seconds and percent inhibition was determined relative to peak calcium levels seen in the presence of stimulation only. The Ramos assay measures the ability of a compound to move through the cell membrane into the cell interior. A lower IC50 value indicates a greater ability to move into the cell interior.
On the technique in general: Calcium assays in cells follow changes in intracellular calcium, usually with a dye or a luminescent sensor.

In assay [2] the target is human recombinant Btk (Homo sapiens (Human), UniProt Q06187). As to the kind of experiment: Human Recombinant Btk Enzyme Assay. Type of assay: biochemical. As to the method: Human Recombinant Btk Enzyme Assay
To V-bottom 384-well plates were added test compounds, human recombinant Btk (1 nM, Invitrogen Corporation), fluoresceinated peptide (1.5 μM), ATP (20 μM), and assay buffer (20 mM HEPES pH 7.4, 10 mM MgCl2, 0.015% Brij 35 surfactant and 4 mM DTT in 1.6% DMSO), with a final volume of 30 μL. After incubating at room temperature for 60 min, the reaction was terminated by adding 45 μL of 35 mM EDTA to each sample. The reaction mixture was analyzed on the Caliper LABCHIP® 3000 (Caliper, Hopkinton, Mass.) by electrophoretic separation of the fluorescent substrate and phosphorylated product. […] Compounds were dissolved at 10 mM in DMSO and evaluated at eleven concentrations.

Setting [3] is: Ramos, Table 3, calcium flux, goat anti-human IgM 2.5 μg/mL, read-out: Ramos IC50 value.
Setting [4] is: Table 3, ATP 20 μM, 60 min room temperature, read-out: Btk IC50 value.
The mark [5] stands for this setting: Homo sapiens, Ramos, Table 3, calcium flux, goat anti-human IgM 2.5 μg/mL, read-out: Ramos IC50 value.
[6] abbreviates: Homo sapiens, Ramos, Table 4, Comparative Example, read-out: Comparative Example Ramos IC50.
[7] abbreviates: Table 4, Comparative Example, read-out: Comparative Example Btk IC50.
The mark [8] stands for this setting: Homo sapiens, Ramos, Table 4, read-out: Example Ramos IC50.

The structures appear in SMILES notation. Like-named read-outs stand apart in the source and are kept apart here.

Chain of human recombinant Btk (Q06187 whole entry): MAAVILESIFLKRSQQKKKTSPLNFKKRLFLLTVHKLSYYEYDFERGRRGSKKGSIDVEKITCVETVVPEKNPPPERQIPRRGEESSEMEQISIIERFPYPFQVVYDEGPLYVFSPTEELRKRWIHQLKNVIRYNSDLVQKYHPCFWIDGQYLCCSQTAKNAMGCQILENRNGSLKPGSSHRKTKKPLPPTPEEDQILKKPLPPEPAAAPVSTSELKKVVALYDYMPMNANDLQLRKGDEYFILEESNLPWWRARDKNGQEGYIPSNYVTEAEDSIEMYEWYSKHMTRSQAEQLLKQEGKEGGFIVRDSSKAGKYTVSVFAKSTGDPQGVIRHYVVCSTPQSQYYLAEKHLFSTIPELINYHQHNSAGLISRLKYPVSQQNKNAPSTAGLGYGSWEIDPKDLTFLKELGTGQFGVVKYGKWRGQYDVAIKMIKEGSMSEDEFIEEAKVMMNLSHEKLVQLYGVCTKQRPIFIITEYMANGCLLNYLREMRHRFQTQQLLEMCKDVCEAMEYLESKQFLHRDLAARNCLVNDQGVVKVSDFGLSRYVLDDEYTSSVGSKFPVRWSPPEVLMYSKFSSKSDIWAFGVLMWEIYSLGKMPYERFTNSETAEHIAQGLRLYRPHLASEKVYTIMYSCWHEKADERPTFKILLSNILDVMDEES

For orientation: IC50 means the concentration at which inhibition is half-maximal. As for `C=CC(=O)N1CCc2c(cccc2-c2c(F)cc(C(N)=O)c3[nH]c4c(c23)CC(F)(F)CC4)C1` (racemic) [Example 1, (RS)-5-(2-Acryloyl-1,2,3,4-tetrahydroisoquinolin-5-yl)-3,3,6-trifluoro-2,3,4,9-tetrahydro-1H-carbazole-8-carboxamide], the results for the 50% inhibitory concentration (IC50) in assay [1] (setting [3]) and in assay [2] (setting [4]) were 25 nM and 0.18 nM, respectively.
As to `C=CC(=O)N1CCOc2c(-c3c(F)cc(C(N)=O)c4[nH]c5ccccc5c34)cccc21` (racemic) [Example 3, (RS)-4-(4-acryloyl-3,4-dihydro-2H-benzo[b][1,4]oxazin-8-yl)-3-fluoro-9H-carbazole-1-carboxamide], the IC50 in assay [1] (setting [3]) came to 4.6 nM; in assay [2] (setting [4]) it was 0.075 nM.
For `C=CC(=O)N1CCSc2c(-c3c(F)cc(C(N)=O)c4[nH]c5ccccc5c34)cccc21` (racemic) [Example 13, (RS)-4-(4-acryloyl-3,4-dihydro-2H-benzo[b][1,4]thiazin-8-yl)-3-fluoro-9H-carbazole-1-carboxamide], the half-inhibitory concentration (IC50) in assay [1] (setting [3]) stood at 9.2 nM; in assay [2] (setting [4]), 0.13 nM.
Take `C=CC(=O)N1CCc2c(cccc2-c2c(F)cc(C(N)=O)c3[nH]c4cc(CCO)ccc4c23)C1` (racemic) [Example 25, 4-(2-acryloyl-1,2,3,4-tetrahydroisoquinolin-5-yl)-3-fluoro-7-(2-hydroxyethyl)-9H-carbazole-1-carboxamide]: the half-maximal inhibitory concentration (IC50) in assay [1] (setting [3]) was determined as 28 nM; in assay [2] (setting [4]) it was 1.5 nM.
In the same order, the values of `N#CN1CCc2c(cccc2-c2c(F)cc(C(N)=O)c3[nH]c4cc(CCO)ccc4c23)C1` (racemic) [Example 27, 4-(2-cyano-1,2,3,4-tetrahydroisoquinolin-5-yl)-3-fluoro-7-(2-hydroxyethyl)-9H-carbazole-1-carboxamide] are 142 nM and 4.8 nM.
Regarding `C=CC(=O)N1CCc2c(cccc2-c2c(F)cc(C(N)=O)c3[nH]c4cc(C(=O)N(C)C)ccc4c23)C1` (racemic) [Example 28, 4-(2-acryloyl-1,2,3,4-tetrahydroisoquinolin-5-yl)-3-fluoro-N7,N7-dimethyl-9H-carbazole-1,7-dicarboxamide], the results for the half-maximal inhibitory concentration (IC50) in assay [1] (setting [3]) and in assay [2] (setting [4]) were 17 nM and 0.17 nM, respectively.
As to `C=CC(=O)N1CCc2c(cccc2-c2c(F)cc(C(N)=O)c3[nH]c4ccc(Cl)cc4c23)C1` (racemic) [Example 29, 4-(2-acryloyl-1,2,3,4-tetrahydroisoquinolin-5-yl)-6-chloro-3-fluoro-9H-carbazole-1-carboxamide], the IC50 in assay [1] (setting [3]) amounted to 107 nM; in assay [2] (setting [4]), 0.26 nM.
Regarding `C=CC(=O)N1CCc2c(cccc2-c2c(F)cc(C(N)=O)c3[nH]c4ccncc4c23)C1` (racemic) [Example 31, 9-(2-acryloyl-1,2,3,4-tetrahydroisoquinolin-5-yl)-8-fluoro-5H-pyrido[4,3-b]indole-6-carboxamide], the IC50 in assay [1] (setting [3]) came out at 13 nM; in assay [2] (setting [4]), 0.3 nM.
Turning to `C=CC(=O)N1CCc2c(cccc2-c2c(Cl)cc(C(N)=O)c3[nH]c4c(c23)CCCC4)C1` (racemic) [Example 32, 5-(2-acryloyl-1,2,3,4-tetrahydroisoquinolin-5-yl)-6-chloro-2,3,4,9-tetrahydro-1H-carbazole-8-carboxamide], the results for the concentration for half-maximal inhibition (IC50) in assay [1] (setting [5]) and in assay [2] (setting [4]) were 46 nM and 0.6 nM, respectively.
With `C=CC(=O)N1CCc2c(cccc2-c2c(Cl)cc(C(N)=O)c3[nH]c4c(c23)CNCC4)C1` (racemic) [Example 33, 9-(2-acryloyl-1,2,3,4-tetrahydroisoquinolin-5-yl)-8-chloro-2,3,4,5-tetrahydro-1H-pyrido[4,3-b]indole-6-carboxamide], in assay [2] (setting [4]), the half-maximal inhibitory concentration (IC50) was 2.3 nM.
With `C=CC(=O)N1CCc2c(cccc2-c2c(F)cc(C(N)=O)c3[nH]c4ccccc4c23)C1` (single isomer, unassigned) [Comparative Example 15, 4-(2-Acryloyl-1,2,3,4-tetrahydroisoquinolin-5-yl)-3-fluoro-9H-carbazole-1-carboxamide], the values for the 50% inhibitory concentration (IC50) in assay [1] (setting [6]) and in assay [2] (setting [7]) were 72 nM and 4 nM, respectively.
The matching figures for `C=CC(=O)N1CCc2c(cccc2-c2c(F)cc(C(N)=O)c3[nH]c4c(c23)CC(F)(F)CC4)C1` (single isomer, unassigned) [Comparative Example 16, 5-(2-Acryloyl-1,2,3,4-tetrahydroisoquinolin-5-yl)-3,3,6-trifluoro-2,3,4,9-tetrahydro-1H-carbazole-8-carboxamide]: more than 300 nM and 4.5 nM.
Take `C=CC(=O)N1CCc2c(cccc2-c2c(F)cc(C(N)=O)c3[nH]c4cc(C(F)(F)F)ccc4c23)C1` (single isomer, unassigned) [Comparative Example 17, 4-(2-Acryloyl-1,2,3,4-tetrahydroisoquinolin-5-yl)-3-fluoro-7-(trifluoromethyl)-9H-carbazole-1-carboxamide]: the IC50 was more than 300 nM in assay [1] (setting [6]) and 14 nM in assay [2] (setting [7]).
For the molecule `C=CC(=O)N1CCOc2c(-c3c(F)cc(C(N)=O)c4[nH]c5ccccc5c34)cccc21` (single isomer, unassigned) [Comparative Example 18, 4-(4-Acryloyl-3,4-dihydro-2H-benzo[b][1,4]oxazin-8-yl)-3-fluoro-9H-carbazole-1-carboxamide], the half-inhibitory concentration (IC50) turned out to be 65 nM in assay [1] (setting [6]) and 1.5 nM in assay [2] (setting [7]).
In the case of `C=CC(=O)N1CCc2c(cccc2-c2c(F)cc(C(N)=O)c3[nH]c4c(c23)CC[C@H](C(C)(C)O)C4)C1` (single isomer, unassigned) [Comparative Example 19], the half-inhibitory concentration (IC50) in assay [1] (setting [6]) was more than 300 nM.
Consider `C=CC(=O)N1CCc2c(cccc2-c2c(F)cc(C(N)=O)c3[nH]c4c(c23)CCC(C(F)(F)F)C4)C1` (single isomer, unassigned) [Comparative Example 20, 5-(2-Acryloyl-1,2,3,4-tetrahydroisoquinolin-5-yl)-6-fluoro-2-(trifluoromethyl)-2,3,4,9-tetrahydro-1H-carbazole-8-carboxamide], for which the IC50 in assay [1] (setting [6]) is more than 300 nM.
For the molecule `C=CC(=O)N1CCc2c(cccc2-c2c(F)cc(C(N)=O)c3[nH]c4c(c23)CCC(C(F)(F)F)C4)C1` (single isomer, unassigned) [Comparative Example 21, 5-(2-Acryloyl-1,2,3,4-tetrahydroisoquinolin-5-yl)-6-fluoro-2-(trifluoromethyl)-2,3,4,9-tetrahydro-1H-carbazole-8-carboxamide], in assay [1] (Table 4, Comparative Example, read-out: Comparative Example Ramos IC50), the 50% inhibitory concentration (IC50) is more than 300 nM.
Take `C=CC(=O)N1CCCOc2c(-c3c(F)cc(C(N)=O)c4[nH]c5cc(C(F)(F)F)ccc5c34)cccc21` (single isomer, unassigned) [Comparative Example 22, 4-(5-Acryloyl-2,3,4,5-tetrahydrobenzo[b][1,4]oxazepin-9-yl)-3-fluoro-7-(trifluoromethyl)-9H-carbazole-1-carboxamide]: the values for the IC50 in assay [1] (setting [6]) and in assay [2] (setting [7]) were 300 nM and 9.5 nM, respectively.
Regarding `C=CC(=O)N1CCc2c(cccc2-c2c(F)cc(C(N)=O)c3[nH]c4c(c23)CC[C@H](C(C)(C)O)C4)C1` (single isomer, unassigned) [Example 9], the half-maximal inhibitory concentration (IC50) in assay [1] (setting [5]) and in assay [1] (setting [8]) was 2.3 nM each time.
In the case of `C=CC(=O)N1CCc2c(cccc2-c2c(F)cc(C(N)=O)c3[nH]c4c(c23)CCC(C(F)(F)F)C4)C1` (single isomer, unassigned) [Example 10, 5-(2-Acryloyl-1,2,3,4-tetrahydroisoquinolin-5-yl)-6-fluoro-2-(trifluoromethyl)-2,3,4,9-tetrahydro-1H-carbazole-8-carboxamide], the IC50 stood at 22.2 nM in assay [1] (setting [5]) and 22 nM in assay [1] (setting [8]).
With `C=CC(=O)N1CCc2c(cccc2-c2c(F)cc(C(N)=O)c3[nH]c4c(c23)CCC(C(F)(F)F)C4)C1` (single isomer, unassigned) [Example 11, 5-(2-Acryloyl-1,2,3,4-tetrahydroisoquinolin-5-yl)-6-fluoro-2-(trifluoromethyl)-2,3,4,9-tetrahydro-1H-carbazole-8-carboxamide], the IC50 in assay [1] (Table 3, calcium flux, goat anti-human IgM 2.5 μg/mL, read-out: Ramos IC50 value) was 16.3 nM; in assay [1] (Table 4, read-out: Example Ramos IC50), 16 nM.
As to `C=CC(=O)N1CCc2c(cccc2-c2c(Cl)cc(C(N)=O)c3[nH]c4ccccc4c23)C1` (single isomer, unassigned) [Example 24], the half-maximal inhibitory concentration (IC50) in assay [1] (setting [5]) was found to be 3 nM.
Turning to `C=CC(=O)N1CCc2c(cccc2-c2c(Cl)cc(C(N)=O)c3[nH]c4ccccc4c23)C1` [Example 30], the IC50 in assay [1] (setting [5]) was 20 nM.
